Read-outs that look alike come from different tables or passages of the source.
Tests used:
Assay in all cases: Field pre-emergence selectivity test
Format in all cases: in vivo
Bush Bean = settings: 1008 h, 6 weeks, read-out: Percent Inhibition; for inhibition at 560 g/ha: 0.56 Kg/Ha; for inhibition at 1120 g/ha: 1.12 Kg/Ha; for inhibition at 2240 g/ha: 2.24 Kg/Ha; for inhibition at 4480 g/ha: 4.48 Kg/Ha
Procedure: (§1) The compound of Examples 1 and 2 was also tested in the field to determine its pre-emergence selectivity against foxtail (spp), barnyardgrass, wild proso millet, smartweed, lambsquarters and pigweed in a plurality of crops; the data (representing three replicate runs) are shown in Table VII for both surface application (S.A.) and soil incorporation (PPI, i.e., preplant incorporation) of the herbicide. The seeds were planted in a fine seedbed of silt loam of intermediate moisture. The seeds were planted at a depth of two inches (5.08 cm). First rainfall (0.2"; 0.51 cm) occurred the day following treatment, the second rain (0.25"; […]) two days after treatment; cumulative rainfall 22 days after treatment was 1.8" (4.57 cm). Observations were made 6 weeks after treatment.

rape = settings: 1008 h, 6 weeks, read-out: Percent Inhibition; for inhibition at 560 g/ha: 0.56 Kg/Ha; for inhibition at 1120 g/ha: 1.12 Kg/Ha; for inhibition at 2240 g/ha: 2.24 Kg/Ha; for inhibition at 4480 g/ha: 4.48 Kg/Ha
Procedure: as §1

Sorghum = settings: 1008 h, 6 weeks, read-out: Percent Inhibition; for inhibition at 560 g/ha: 0.56 Kg/Ha; for inhibition at 1120 g/ha: 1.12 Kg/Ha; for inhibition at 2240 g/ha: 2.24 Kg/Ha; for inhibition at 4480 g/ha: 4.48 Kg/Ha
Procedure: as §1

Field Corn = settings: Zea mays, 1008 h, 6 weeks, read-out: Percent Inhibition; for inhibition at 560 g/ha: 0.56 Kg/Ha; for inhibition at 1120 g/ha: 1.12 Kg/Ha; for inhibition at 2240 g/ha: 2.24 Kg/Ha; for inhibition at 4480 g/ha: 4.48 Kg/Ha
Procedure: as §1

Barnyardgrass = settings: Echinochloa crus-galli, 1008 h, 6 weeks, read-out: Percent Inhibition; for inhibition at 560 g/ha: 0.56 Kg/Ha; for inhibition at 1120 g/ha: 1.12 Kg/Ha; for inhibition at 2240 g/ha: 2.24 Kg/Ha; for inhibition at 4480 g/ha: 4.48 Kg/Ha
Procedure: as §1

Smartweed = settings: 1008 h, 6 weeks, read-out: Percent Inhibition; for inhibition at 560 g/ha: 0.56 Kg/Ha; for inhibition at 2240 g/ha: 2.24 Kg/Ha; for inhibition at 4480 g/ha: 4.48 Kg/Ha
Procedure: as §1

foxtail (spp) = settings: Setaria, 1008 h, 6 weeks, read-out: Percent Inhibition; for inhibition at 560 g/ha: 0.56 Kg/Ha; for inhibition at 1120 g/ha: 1.12 Kg/Ha; for inhibition at 2240 g/ha: 2.24 Kg/Ha; for inhibition at 4480 g/ha: 4.48 Kg/Ha
Procedure: as §1

soybeans = settings: Glycine max, 1008 h, 6 weeks, read-out: Percent Inhibition; for inhibition at 560 g/ha: 0.56 Kg/Ha; for inhibition at 1120 g/ha: 1.12 Kg/Ha; for inhibition at 2240 g/ha: 2.24 Kg/Ha; for inhibition at 4480 g/ha: 4.48 Kg/Ha
Procedure: as §1

pigweed = settings: Amaranthus retroflexus, 1008 h, 6 weeks, read-out: Percent Inhibition; for inhibition at 560 g/ha: 0.56 Kg/Ha; for inhibition at 1120 g/ha: 1.12 Kg/Ha
Procedure: as §1

Work on `CCOCN(C(=O)CCl)c1c(C)cccc1C(F)(F)F` [Example 1, N-(ethoxymethyl)-2'-trifluoromethyl-6'-methyl-2-chloroacetanilide] yielded an inhibition at 560 g/ha (Bush Bean; P.P.I.) of 23%, an inhibition at 1120 g/ha (Bush Bean; P.P.I.) of 10% and an inhibition at 2240 g/ha (Bush Bean; P.P.I.) of 37%. The inhibition at 4480 g/ha (Bush Bean; P.P.I.) was 43%, the inhibition at 560 g/ha (Bush Bean; S.A.) was 0% and the inhibition at 1120 g/ha (Bush Bean; S.A.) was 8%. For the same compound, the inhibition at 2240 g/ha (Bush Bean; S.A.) was 20%, the inhibition at 4480 g/ha (Bush Bean; S.A.) was 32% and the inhibition at 560 g/ha (rape; P.P.I.) was 0%. The inhibition at 1120 g/ha (rape; P.P.I.) was 0%, the inhibition at 2240 g/ha (rape; P.P.I.) was 15% and the inhibition at 4480 g/ha (rape; P.P.I.) was 40%. For the same compound, the inhibition at 560 g/ha (rape; S.A.) was 0%, the inhibition at 1120 g/ha (rape; S.A.) was 0% and the inhibition at 2240 g/ha (rape; S.A.) was 5%. It also gave an inhibition at 4480 g/ha (rape; S.A.) of 33%, an inhibition at 560 g/ha (Sorghum; P.P.I.) of 32% and an inhibition at 1120 g/ha (Sorghum; P.P.I.) of 53%. For the same compound, the inhibition at 2240 g/ha (Sorghum; P.P.I.) was 92%, the inhibition at 4480 g/ha (Sorghum; P.P.I.) was 98% and the inhibition at 560 g/ha (Sorghum; S.A.) was 0%. It also gave an inhibition at 1120 g/ha (Sorghum; S.A.) of 3%, an inhibition at 2240 g/ha (Sorghum; S.A.) of 17% and an inhibition at 4480 g/ha (Sorghum; S.A.) of 77%. For the same compound, the inhibition at 560 g/ha (Field Corn; P.P.I.) was 0%, the inhibition at 1120 g/ha (Field Corn; P.P.I.) was 0% and the inhibition at 2240 g/ha (Field Corn; P.P.I.) was 5%. The inhibition at 4480 g/ha (Field Corn; P.P.I.) was 32%, the inhibition at 560 g/ha (Field Corn; S.A.) was 0% and the inhibition at 1120 g/ha (Field Corn; S.A.) was 0%. For the same compound, the inhibition at 2240 g/ha (Field Corn; S.A.) was 0%, the inhibition at 4480 g/ha (Field Corn; S.A.) was 15% and the inhibition at 560 g/ha (Barnyardgrass; P.P.I.) was 75%. It also gave an inhibition at 1120 g/ha (Barnyardgrass; P.P.I.) of 93%, an inhibition at 2240 g/ha (Barnyardgrass; P.P.I.) of 98% and an inhibition at 4480 g/ha (Barnyardgrass; P.P.I.) of 100%. It also gave an inhibition at 560 g/ha (Barnyardgrass; S.A.) of 63%, an inhibition at 1120 g/ha (Barnyardgrass; S.A.) of 93% and an inhibition at 2240 g/ha (Barnyardgrass; S.A.) of 93%. The inhibition at 4480 g/ha (Barnyardgrass; S.A.) was 98%, the inhibition at 560 g/ha (Smartweed; P.P.I.) was 20% and the inhibition at 2240 g/ha (Smartweed; P.P.I.) was 75%. It also gave an inhibition at 4480 g/ha (Smartweed; P.P.I.) of 85%, an inhibition at 560 g/ha (Smartweed; S.A.) of 0% and an inhibition at 1120 g/ha (Smartweed; S.A., 1.12 Kg/Ha) of 0%. The inhibition at 2240 g/ha (Smartweed; S.A.) was 50%, the inhibition at 4480 g/ha (Smartweed; S.A.) was 90% and the inhibition at 560 g/ha (foxtail (spp); P.P.I.) was 75%. For the same compound, the inhibition at 1120 g/ha (foxtail (spp); P.P.I.) was 90%, the inhibition at 2240 g/ha (foxtail (spp); P.P.I.) was 98% and the inhibition at 4480 g/ha (foxtail (spp); P.P.I.) was 100%. For the same compound, the inhibition at 560 g/ha (foxtail (spp); S.A.) was 62%, the inhibition at 1120 g/ha (foxtail (spp); S.A.) was 92% and the inhibition at 2240 g/ha (foxtail (spp); S.A.) was 93%. It also gave an inhibition at 4480 g/ha (foxtail (spp); S.A.) of 98%, an inhibition at 560 g/ha (soybeans; P.P.I.) of 5% and an inhibition at 1120 g/ha (soybeans; P.P.I.) of 7%. For the same compound, the inhibition at 2240 g/ha (soybeans; P.P.I.) was 20%, the inhibition at 4480 g/ha (soybeans; P.P.I.) was 40% and the inhibition at 560 g/ha (soybeans; S.A.) was 0%. For the same compound, the inhibition at 1120 g/ha (soybeans; S.A.) was 5%, the inhibition at 2240 g/ha (soybeans; S.A.) was 0% and the inhibition at 4480 g/ha (soybeans; S.A.) was 13%. For the same compound, the inhibition at 560 g/ha (pigweed; P.P.I.) was 50%, the inhibition at 1120 g/ha (pigweed; P.P.I.) was 85% and the inhibition at 2240 g/ha (pigweed; P.P.I., 2.24 Kg/Ha) was 85%. It also gave an inhibition at 4480 g/ha (pigweed; P.P.I., 4.48 Kg/Ha) of 95%, an inhibition at 560 g/ha (pigweed; S.A.) of 0% and an inhibition at 1120 g/ha (pigweed; S.A.) of 0%.

Reference: patent US4731109A, “Herbicidal 2-haloacetanilides” (Monsanto Company, priority 1982, dated 1988)
